Assay results published in US12414952B2 (Merck Sharp & Dohme LLC, priority 2018, dated 2025).

Key:
[1] = target: human A2a adenosine receptor (Homo sapiens (Human), UniProt P29274); test: A2a binding affinity using radioligand binding, Method (A); settings: Method (A): [3H]SCH58261 filtration binding
Procedure, shortened: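 Membranes from HEK293 or CHO cells expressing human A2a were preincubated with compound for 15–30 min at room temperature. [3H]SCH58261 was then added (4 nM working dilution) in 50 mM Tris pH 7.4, 10 mM MgCl2, 0.005% Tween20 for 60 min at room temperature. Bound radioactivity after filtration was normalised to total and non-specific binding, and IC50 came from 4-parameter logistic fits.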

[2] = target: human A2b adenosine receptor (Homo sapiens (Human), UniProt P29275); test: A2b binding affinity, radioligand filtration binding assay; settings: tritiated proprietary A2b antagonist, HEK293 membranes
Description: Measurement of A2b Binding Affinity
The reported affinity of the compounds of the invention for the human A2b adenosine receptor was determined experimentally using a radioligand filtration binding assay. This assay measures the amount of binding of a tritiated proprietary A2b receptor antagonist, in the presence and absence of a compound of the invention, to membranes made from HEK293 cells recombinantly expressing the human A2b adenosine receptor (Perkin Elmer, Cat. No. ES-013-C).
The filter plate was incubated for at least 1 h at 55° C. and allowed to dry. The bottom of the filter plate was then sealed with backing tape. […] The plates were then incubated for at least 20 min, and then the amount of radioactivity remaining in each well was determined using a TopCount® (Perkin Elmer) scintillation counter. After normalization to total and non-specific binding, the percent effect at each compound concentration was calculated. The plot of percent effect versus the log of compound concentration was analyzed electronically using a 4-parameter logistic fit based on the Levenberg-Marquardt algorithm to generate IC50 values.

Chain of human A2a adenosine receptor (P29274 whole entry): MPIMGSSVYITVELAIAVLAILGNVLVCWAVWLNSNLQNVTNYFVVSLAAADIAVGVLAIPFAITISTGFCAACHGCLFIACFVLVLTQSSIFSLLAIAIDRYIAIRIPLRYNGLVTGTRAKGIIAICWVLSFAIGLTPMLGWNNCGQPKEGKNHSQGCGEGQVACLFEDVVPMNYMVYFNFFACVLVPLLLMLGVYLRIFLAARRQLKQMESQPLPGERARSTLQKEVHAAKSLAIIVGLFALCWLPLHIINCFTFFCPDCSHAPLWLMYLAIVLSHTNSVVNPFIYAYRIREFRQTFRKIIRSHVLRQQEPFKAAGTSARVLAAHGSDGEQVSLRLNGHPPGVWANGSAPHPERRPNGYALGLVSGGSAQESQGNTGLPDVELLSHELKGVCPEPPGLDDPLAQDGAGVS
Chain of human A2b adenosine receptor (P29275 whole entry): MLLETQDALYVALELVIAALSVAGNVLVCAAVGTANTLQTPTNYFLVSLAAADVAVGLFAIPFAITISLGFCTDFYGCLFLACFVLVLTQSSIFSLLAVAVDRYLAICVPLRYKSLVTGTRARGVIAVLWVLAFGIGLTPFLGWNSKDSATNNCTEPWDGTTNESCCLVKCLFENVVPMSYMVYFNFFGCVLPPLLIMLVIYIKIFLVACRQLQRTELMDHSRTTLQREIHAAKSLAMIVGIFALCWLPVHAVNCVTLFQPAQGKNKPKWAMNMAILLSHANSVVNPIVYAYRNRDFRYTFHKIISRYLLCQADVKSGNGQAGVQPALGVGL

Structure (SMILES)	IC50 [1] [nM]	IC50 [2] [nM]
Cc1c(-c2ncco2)nc(N)n2nc(Cc3ccc(C4(O)CCC4)cc3)nc12 [Example 6.3, 1-(4-((5-amino-8-methyl-7-(oxazol-2-yl)-[1,2,4]triazolo[1,5-c]pyrimidin-2-yl)methyl)phenyl)cyclobutanol]	17.1	10.7
Cc1ccc(-c2nc(N)c3nc(Cc4ccccc4)nn3c2C)cc1F [Example 3.37]	1000	3710
Nc1nc(-c2cc(F)ccc2F)c(C2CC2)n2nc(Cc3ccccc3)nc12 [Example 20.5, 2-benzyl-5-cyclopropyl-6-(2,5-difluorophenyl)-[1,2,4]triazolo[1,5-a]pyrazin-8-amine]	13.5	117
Cc1c(-c2cccc(F)c2)nc(N)c2nc(CCN3CCn4c(cnc4C(C)C)C3)nn12 [Example 2.8]	160	48.1
Cc1c(-c2ncco2)nc(N)n2nc(CCN3CCc4c(nnn4C4CC(F)(F)C4)C3)nc12 [Example 17.14, 2-(2-(1-(3,3-difluorocyclobutyl)-1,4,6,7-tetrahydro-5H-[1,2,3]triazolo[4,5-c]pyridin-5-yl)ethyl)-8-methyl-7-(oxazol-2-yl)-[1,2,4]triazolo[1,5-c]pyrimidin-5-amine]	0.5	41.7
Cc1c(-c2cncc(Cl)c2)nc(N)c2nc(Cc3ccccc3)nn12 [Example 3.32]	13.1	147
COc1ncc(-c2nc(N)c3nc(Cc4ccccc4)nn3c2C)cc1Cl [Example 3.27]	11	145
CC(C)c1ncc2n1CCN(CCc1nc3cc(-c4cc(F)ccc4F)nc(N)n3n1)C2 [Example 2.11]	246	178
COC1(c2ccc(Cc3nc4c(C)c(-c5ncco5)nc(N)n4n3)cc2)CCC1 [Example 6.4, 2-(4-(1-methoxycyclobutyl)benzyl)-8-methyl-7-(oxazol-2-yl)-[1,2,4]triazolo[1,5-c]pyrimidin-5-amine]	4.9	5.7
Cc1c(-c2cccc(F)c2)nc(N)n2nc(CCS(=O)(=O)C3CC3)nc12 [Example 16.2, 2-(2-(cyclopropylsulfonyl)ethyl)-7-(3-fluorophenyl)-8-methyl-[1,2,4]triazolo[1,5-c]pyrimidin-5-amine]	19.3	453
Cc1c(-c2ncco2)nc(N)n2nc(Cc3ccn(C)n3)nc12 [Example 7.6, 8-methyl-2-((1-methyl-1H-pyrazol-3-yl)methyl)-7-(oxazol-2-yl)-[1,2,4]triazolo[1,5-c]pyrimidin-5-amine]	0.5	2.6
Cc1c(-c2cc(F)c(F)c(F)c2)nc(N)c2nc(Cc3ccccc3)nn12 [Example 3.36]	76.5	154
Cc1c(-c2ncco2)nc(N)n2nc(CCN3CCc4c(nnn4CC(C)(C)O)C3)nc12 [Example 1.18]	18.1	694
Cc1c(-c2ncco2)nc(N)c2nc(Cc3ccc(C(C)(C)O)cn3)nn12 [Example 4.11]	48.2	66.5
CCOC(=O)c1cnn(CCc2nc3c(C)c(-c4ncco4)nc(N)n3n2)c1 [Example 17.17, ethyl 1-(2-(5-amino-8-methyl-7-(oxazol-2-yl)-[1,2,4]triazolo[1,5-c]pyrimidin-2-yl)ethyl)-1H-pyrazole-4-carboxylate]	34.9	9670
Cc1c(F)cccc1-c1nc(N)c2nc(Cc3ccccc3)nn2c1C [Example 3.39]	98.5	1020
CC(C)c1ncc2n1CCN(CCc1nc3cc(-c4ncco4)nc(N)n3n1)C2 [Example 1.19]	127	905
Cc1c(-c2cccc(F)c2)nc(N)n2nc(CCN3CCc4c(nnn4C(C)C)C3)nc12 [Example 2.16]	2.3	73.4

Structure (SMILES)	IC50 [1] [nM]	IC50 [2] [nM]
Cc1cccnc1Cc1nc2c(N)nc(-c3cc(F)ccc3F)c(C)n2n1 [Example 4.3, 6-(2,5-difluorophenyl)-5-methyl-2-((3-methylpyridin-2-yl)methyl)-[1,2,4]triazolo[1,5-a]pyrazin-8-amine]	9.9	47.3
Cc1c(-c2ncco2)nc(N)n2nc(Cc3ccc4c(c3)ncn4CC(F)F)nc12 [Example 4.7]	35.3	7.6
Cc1c(-c2ncco2)nc(N)n2nc(CCN3CCn4c(cnc4C(C)C)C3)nc12 [Example 1.10]	2.1	16.2
CC(C)c1ncc2n1CCN(CCc1nc3cc(-c4cc(F)cc(F)c4)nc(N)n3n1)C2 [Example 2.14]	362	223
Cc1c(-c2ncco2)nc(N)n2nc(Cc3ccc(C(C)(C)O)cc3)nc12 [Example 6.5, 2-(4-((5-amino-8-methyl-7-(oxazol-2-yl)-[1,2,4]triazolo[1,5-c]pyrimidin-2-yl)methyl)phenyl)propan-2-ol]	38.7	5
CC(C)c1ncc2n1CCN(CCc1nc3cc(-c4cc(F)ccc4O)nc(N)n3n1)C2 [Example 2.10]	1000	400
Cc1c(-c2ncco2)nc(N)n2nc(CCN3Cc4nnn(C(C)C)c4C(C)C3)nc12 (single isomer, unassigned) [Example 17.8-2, (R or S)-2-(2-(1-isopropyl-7-methyl-1,4,6,7-tetrahydro-5H-[1,2,3]triazolo[4,5-c]pyridin-5-yl)ethyl)-8-methyl-7-(oxazol-2-yl)-[1,2,4]triazolo[1,5-c]pyrimidin-5-amine]	2.3	14
Cc1c(-c2cc(Cl)ccc2F)nc(N)c2nc(Cc3ccccc3)nn12 [Example 3.24]	0.7	2.4
Cc1c(-c2ccn(C)n2)nc(N)c2nc(Cc3ccccc3)nn12 [Example 3.46]	4.4	82.6
Cc1c(-c2ncco2)nc(N)c2nc(Cc3ncccc3F)nn12 [Example 8.4]	1.3	18.6
Cc1c(-c2cccc(Cl)c2)nc(N)c2nc(Cc3ccccc3)nn12 [Example 3.23]	2.7	13.6
Cc1c(-c2ncco2)nc(N)c2nc(Cc3cccc4c3ncn4CC(F)F)nn12 [Example 4.10]	0.7	6.5
Cc1c(-c2ncco2)nc(N)n2nc(CNCc3ccc(C(C)(C)O)cc3)nc12 [Example 11.2, 2-(4-((((5-amino-8-methyl-7-(oxazol-2-yl)-[1,2,4]triazolo[1,5-c]pyrimidin-2-yl)methyl)amino)methyl)phenyl)propan-2-ol]	1.1	62.6
Cc1c(-c2ncco2)nc(N)n2nc(CCN3CCn4c(cnc4C4CCC4)C3)nc12 [Example 1.11]	3.6	56.3
Cc1c(-c2ncco2)nc(N)n2nc(CN3CCc4cccnc43)nc12 [Example 10.3, 2-((2,3-dihydro-1H-pyrrolo[2,3-b]pyridin-1-yl)methyl)-8-methyl-7-(oxazol-2-yl)-[1,2,4]triazolo[1,5-c]pyrimidin-5-amine]	0.4	14.5
Cc1c(-c2ncco2)nc(N)n2nc(CCN3CCc4c(nnn4C4CC4)C3)nc12 [Example 1.16]	0.3	111
Cc1c(-c2ncco2)nc(N)n2nc(CCN3CCc4c(cnn4C4CCC4)C3)nc12 [Example 1.13]	1	144
COc1ccc(F)cc1-c1nc(N)c2nc(Cc3ccccc3)nn2c1C [Example 3.43]	611	2520
